Consider six molecules from ChEMBL document CHEMBL1133328, “Heterocyclic bibenzimidazole derivatives as topoisomerase I inhibitors” (Bioorg Med Chem Lett, 2000).

Test [1] concerns Nucleic Acid. Kind of test: Compound-poly(dA).poly(dT) association constant at the melting temperature (73.4 degree C) DNA complex was determined. It counts as nucleic-acid assay.
Test [2] deals with T1, DNA topoisomerase 1 (Homo sapiens) (UniProt P11387).
T1 sequence (whole entry): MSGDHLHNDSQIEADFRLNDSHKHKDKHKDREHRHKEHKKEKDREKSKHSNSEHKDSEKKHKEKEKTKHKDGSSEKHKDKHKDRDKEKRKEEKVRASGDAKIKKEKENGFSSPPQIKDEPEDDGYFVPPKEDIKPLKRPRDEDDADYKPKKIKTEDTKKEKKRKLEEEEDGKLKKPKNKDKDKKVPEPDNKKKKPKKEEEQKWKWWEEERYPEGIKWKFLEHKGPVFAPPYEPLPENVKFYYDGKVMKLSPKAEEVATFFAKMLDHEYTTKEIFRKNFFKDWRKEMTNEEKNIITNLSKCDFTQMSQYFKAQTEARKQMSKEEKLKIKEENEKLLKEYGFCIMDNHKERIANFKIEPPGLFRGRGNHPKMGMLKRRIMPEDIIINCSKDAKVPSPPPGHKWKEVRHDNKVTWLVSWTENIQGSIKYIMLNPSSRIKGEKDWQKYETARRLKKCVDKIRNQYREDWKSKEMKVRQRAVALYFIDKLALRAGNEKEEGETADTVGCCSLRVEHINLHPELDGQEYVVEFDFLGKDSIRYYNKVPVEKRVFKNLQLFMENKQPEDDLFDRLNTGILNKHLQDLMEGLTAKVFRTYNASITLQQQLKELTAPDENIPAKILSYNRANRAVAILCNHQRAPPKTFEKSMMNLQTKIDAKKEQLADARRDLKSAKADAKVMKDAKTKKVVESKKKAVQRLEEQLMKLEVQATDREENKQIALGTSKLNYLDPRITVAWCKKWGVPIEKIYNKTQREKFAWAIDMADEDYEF
Kind of test: Relative effective concentration that produces the same degree of cleavage on the plasmid DNA in the presence of human topoisomerase-1.

Test [3] relates to Nucleic Acid. Kind of test: Compound-poly(dA).poly(dT) association constant at the melting temperature (81.5 degree C) DNA complex was determined. It counts as nucleic-acid assay.
In test [4] the test system is Nucleic Acid. Kind of test: Compound-poly(dA).poly(dT) association constant at the melting temperature (80 degree C) of the compound-DNA complex was determined. It counts as nucleic-acid assay.

On to `c1ccc(-c2ccc3[nH]c(-c4ccc5[nH]c(-c6ccc7[nH]ccc7c6)nc5c4)nc3c2)cc1`, for which, in the test on Nucleic Acid [1], the K Tm was 3.5e+07 M⁻¹. The Topoisomerase-I activity in test [2] came to 50. Turning to `c1ccc(-c2ccc3[nH]c(-c4ccc5[nH]c(-c6ccc7[nH]nnc7c6)nc5c4)nc3c2)cc1`, in test [2], the Topoisomerase-I activity came to 1. With `c1ccc(-c2ccc3[nH]c(-c4ccc5[nH]c(-c6ccc7[nH]cnc7c6)nc5c4)nc3c2)cc1`, the K Tm with Nucleic Acid [3] came to 2.8e+08 M⁻¹. Besides, in test [2], the Topoisomerase-I activity stood at 1. Take `c1ccc(-c2ccc3[nH]c(-c4ccc5[nH]c(-c6ccc7nccnc7c6)nc5c4)nc3c2)cc1`: the Topoisomerase-I activity in test [2] was more than 100. With `c1ccc(-c2ccc3[nH]c(-c4ccc5[nH]c(-c6ccc7cc[nH]c7c6)nc5c4)nc3c2)cc1`, the K Tm in the test with Nucleic Acid [4] stood at 1.9e+08 M⁻¹. Moreover, the Topoisomerase-I activity in test [2] is 5. For `Oc1nc2ccc(-c3nc4cc(-c5nc6cc(-c7ccccc7)ccc6[nH]5)ccc4[nH]3)cc2nc1O`, the Topoisomerase-I activity in test [2] stood at 1.
